Results taken from paper PMC4452589, “An evaluation of the brain distribution of [^11C]GSK1034702, a muscarinic-1 (M1) positive allosteric modulator in the living human brain using positron emission tomography” (EJNMMI Research, 2014).
Where two headings read alike, the source gives them in different places.

How the values were obtained:
[1] = plasma free fraction by ultrafiltration, human arterial plasma; format: in vitro ADME
Method: Arterial blood radioactivity was measured continuously for the first 15 min after [^11C]GSK1034702 injection, using a continuous sampling system (ABSS Allogg, Mariefred, Sweden). In addition, 12 serial discrete blood samples were obtained (at 5, 10, 15, 20, 25, 30, 40, 50, 60, 70, 80 and 90 min post injection), to determine whole blood and plasma activity. Seven samples (at 5, 10, 20, 30, 50, 70 and 90 min) were further processed by HPLC to measure the fraction of plasma activity representing unmetabolised GSK1034702. For all human studies, the non-protein-bound fraction of [^11C]GSK1034702 in arterial plasma (fP) was assessed by ultrafiltration for the blood sample taken at the beginning of the scan.

[2] = safety and tolerability of single 5-mg oral dose in healthy males; format: in vivo, human; settings: single oral dose of 5 mg
Method: An open-label PET study (GSK study number 110771) was conducted to assess the transport of [^11C]GSK1034702 across the BBB and its distribution in the living human brain. Four healthy males aged between 35 and 55 years old, with body mass index (BMI) between 19.0 and 29.0 kg/m^2, and the absence of past or present neurological, medical or psychiatric illnesses and concomitant medications were enrolled. Clinical status was assessed by history, physical examination, routine blood tests, urine toxicology and electrocardiogram. All subjects provided written informed consent. The study was approved by the Edinburgh Independent Ethics Committee for Medical Research and permission to administer radioisotopes was obtained from the Administration of Radioactive Substances Advisory Committee of the UK. Subjects were recruited by and monitored by the Hammersmith Medicines Research (HMR) clinic. All scanning procedures were performed at the GlaxoSmithKline Clinical Imaging Center, Hammersmith Hospital, London.
Each subject underwent a single study day, during which PET imaging was performed. T1-weighted structural MRI scan was performed for all subjects to provide neuroanatomical information. A tracer dose of [^11C]GSK1034702 (mass <50 μg) was administered as an IV bolus immediately before each PET scan. During the scanning day, each subject received a baseline [^11C]GSK1034702 scan, followed by a single 5-mg oral dose (p.o.) of […] and a subsequent [^11C]GSK1034702 scan approximately 4 h post-dose. Subjects returned to the clinic for a follow-up visit 7 to 14 days following the oral dose of GSK1034702.

[3] = plasma protein binding by equilibrium dialysis, mouse; format: in vitro ADME; settings: equilibrium dialysis 5 h
Method: (§1) The in vitro brain and plasma protein binding of GSK1034702 across a range of species was determined using equilibrium dialysis as described previously.

[4] = plasma protein binding by equilibrium dialysis, dog; format: in vitro ADME; settings: equilibrium dialysis 5 h
Method: as §1

[5] = plasma protein binding by equilibrium dialysis, human; format: in vitro ADME; settings: equilibrium dialysis 5 h
Method: as §1

[6] = brain tissue binding by equilibrium dialysis, mouse; format: in vitro ADME; settings: equilibrium dialysis 5 h
Method: as §1

[7] = brain tissue binding by equilibrium dialysis, rat; format: in vitro ADME; settings: equilibrium dialysis 5 h; for Brain tissue binding: 1 μg/mL, mean ± SD, n = 6; for fraction unbound at 5 h, 1 μg/mL: brain tissue, read-out: f ND (brain-free fraction)
Method: as §1

[8] = brain tissue binding by equilibrium dialysis, dog; format: in vitro ADME; settings: equilibrium dialysis 5 h
Method: as §1

[9] = brain tissue binding by equilibrium dialysis, monkey; format: in vitro ADME; settings: equilibrium dialysis 5 h
Method: as §1

human m2-5AChR receptors = test system: human m2-5AChR receptors; design: method as in earlier work; settings: versus m1AChR; cited from earlier work
P-glycoprotein (PGP) = test system: P-glycoprotein (PGP); design: method as in GlaxoSmithKline (GSK) data on file; settings: MDCK cell line expressing human MDR1; ratio printed as x:1; ref GlaxoSmithKline (GSK) data on file; cited from earlier work
[10] = design: method as in GlaxoSmithKline (GSK) data on file; settings: mouse; ref GlaxoSmithKline (GSK) data on file; cited from earlier work
[11] = design: method as in GlaxoSmithKline (GSK) data on file; settings: marmoset; ratio printed as x:1; ref GlaxoSmithKline (GSK) data on file; cited from earlier work
[12] = mean ± SD, n = 6, read-out: Plasma protein binding (converted)
[13] = read-out: f P (plasma-free fraction)
[14] = brain tissue, read-out: f ND (brain-free fraction)

f P Baseline ([1]; Average of four subjects): 0.45 | f P Post-dose ([1]; Average, after 5 mg oral): 0.44 | f P Baseline ([1]; Subject 1): 0.42 | f P Baseline ([1]; Subject 2): 0.43 | f P Post-dose ([1]; Subject 2, after 5 mg oral): 0.41 | f P Baseline ([1]; Subject 3): 0.43 | f P Post-dose ([1]; Subject 3, after 5 mg oral): 0.43 | f P Baseline ([1]; Subject 4): 0.51 | f P Post-dose ([1]; Subject 4, after 5 mg oral): 0.48 | fraction unbound at 5 h, 1 μg/mL [3, 12]: 0.518 | fraction unbound at 5 h, 1 μg/mL [3, 13]: 0.52 | fraction unbound at 5 h, 1 μg/mL [4, 12]: 0.555 | fraction unbound at 5 h, 1 μg/mL [4, 13]: 0.56 | fraction unbound at 5 h, 1 μg/mL [5, 12]: 0.442 | fraction unbound at 5 h, 1 μg/mL [5, 13]: 0.44 | fraction unbound at 5 h, 1 μg/mL [6, 14]: 0.13 | Brain tissue binding ([6]; 1 μg/mL, mean ± SD, n = 6): 86.7 (±0.6) % | Brain tissue binding ([7]; Rat (CD)): 87.7 (±0.5) % | Brain tissue binding ([7]; Rat (LH)): 84.9 (±1.0) % | fraction unbound at 5 h, 1 μg/mL ([7]; Rat (CD)): 0.12 | fraction unbound at 5 h, 1 μg/mL ([7]; Rat (LH)): 0.15 | fraction unbound at 5 h, 1 μg/mL [8, 14]: 0.18 | Brain tissue binding ([8]; 1 μg/mL, mean ± SD, n = 6): 81.8 (±1.8) % | fraction unbound at 5 h, 1 μg/mL [9, 14]: 0.17 | Brain tissue binding ([9]; 1 μg/mL, mean ± SD, n = 6): 83.2 (±1.1) %
Structure (SMILES): Cc1cc(F)c2[nH]c(=O)n(C3CCN(C4CCOCC4)CC3)c2c1 [GSK1034702]
serious adverse events [2]: No serious adverse events | tolerability ([2]; healthy male subjects): well tolerated | adverse events ([2]; one subject, salivary hypersecretion and dysgeusia, considered drug-related): two mild and transient adverse events | selectivity over human m2-5AChR receptors (human m2-5AChR receptors): 100 fold | efflux ratio (P-glycoprotein (PGP)): 2.6 | brain/blood ratio [10]: 0.4 | brain/blood ratio [11]: 2.0
